Series [1] deals with TA98. Kind of series: Mini-Ames assay, strain TA98. Format: cell-based. The settings on record: Salmonella typhimurium. The procedure: (§1) Mini Am es assay. To conduct the assay, top agar was melted with a microwave and maintained at a temper atur e ≥47 °C in a water bath. T he assay was performed using a heat block set to 45 °C ± 2 °C. 12 × 75 mm test tubes were prepared in duplicates. For each concentration, the following components were added sequentially to a test tube:
(§2) […] The mixture was vortexed and then dispensed into w ells using a dispo sable pipette. The plates wer e then incubated at 37±2 °C for approximately 48 to 72 hours.
(§3) BBbbbb BBBBbbbb BBBB = AAAAbbbbbbAAbb nnnnnnbbbbbb bboo bbbbAAbbbbbbbbnnbbbb oobbbb bbbb eeee dd bbbbbb AAbbbbnn gg AAAAbbbbbbAAbb nnnnnnbbbbbb bbBB bbbbAAbbbbbbbbnnbbbb BBbbbb DDDDDDDD nn bbAAbbbbaaAAbb AAbbbbnnaa The mutagenicity of the compound was determined by evaluating the number of revertant colonies in strains TA98 and TA100. A compound was […]
(§4) related and if the fold increase in revertants (F) was equal to or greater than 2 for […]
(§5) background lawn growth on the agar plates. A scoring system ranging from 0 to 4 […]
growth, respectively. A score of 4 signified full '100%' growth. […]
(§6) background lawn and required magnification for visualization. […]
In general terms: The Ames test uses bacterial strains that need an amino acid and regain growth without it when mutated back.

Series [2] deals with TA100. Kind of series: Mini-Ames assay, strain TA100. Format: cell-based. The procedure: as §1, §2, §3, §4, §5
complete cytotoxicity, while scores 1, 2, and 3 represented 25%, 50%, and 75% growth, respectively. A score of 4 signified full '100%' growth. The background […]
as §6

The target of series [3] is P-gp (MDR1-MDCKII cells) (Homo sapiens, UniProt P08183). The experiment in a line: Bidirectional permeability in MDR1-MDCKII cells with and without GF120918. The settings on record: for Rank Papp: MDR1-MDCKII permeability rank. The protocol:
(§7) MDR1-MDCKII cells were seeded onto […] (PET) in a 96-well insert system. Test and reference compounds were administered to the apical (A-to-B) and basolateral (B-to-A) sides of the cell monolayer. Permeation of the compounds in both directions was assessed, with and without a P-glycoprotein (P-gp) inhibitor (GF120918). […] After a 2.5-h incubation period, each compound’s permeability and efflux ratio were calculated as described in the SI. […]
(§8) Bidirectional permeability assessment in MDR1-MDCK cells. Test and reference compounds were quantified using LC -MS/MS ana lysis based on th e peak ar ea r atio of analyte to internal standard (IS). T he apparent permeability coefficient (Papp) in cm/s was computed using the equation: Pa pp = (dCr/d t ) × V r / ( A × C 0), where dCr/ d t […]
(§9) represents the cumulative concentration of the compound in the receiver chamber over time (µM/s), Vr is the solution volume in the receiver chamber (0.075 mL on the apical side, 0.25 mL on the basolateral side), A is the surface area for transport (0.0804 cm2 f or the monolayer ar ea), and C0 is the initial concentration in the donor chamber ( µM) .
(§10) The efflux ratio was determined using the equation Efflux Ratio = P a pp ( B:
(§11) A ) / Pa pp (A: B) . […]
(§12) Additionally, the percent of lucifer yellow in the basolateral well was calculated using the equation:
(§13) Lucif er yellow = VV bbbbbbbbbbbbbbbbbbbb ×RR FFFF bbbbbbbbbbbbbbbbbbbb ×100 VV bbaaaaaa bbbb ×RRRRRR bbaaaaaa bbbb+VV bbbbbbbbbbbbbbbbbbbb ×RRFFFF bbbbbbbbbbbbbbbbbbbb wher e RFUApical and RFUBasolateral demote the r elative f luor escence unit values of lucif er yellow in the apical and basolateral wells, respectively, and VApical and VBasolateral represent the volumes of apical and basolateral wells (0.075 mL and 0.25 mL, r espectively) . T he % Lucif er Yellow should be less than 2, indicating minimal leakage. […]

Series [4] addresses T1, mouse CB1R (Mus musculus, UniProt P47746).
T1 construct: crude membranes from mouse brain; from tissue; host or cells: mouse brain cortex (without cerebellum) membranes, C57Bl/6Jhsd mice
Kind of series: Radioligand competition displacement binding, [3H]CP-55,940, mouse brain membranes. The settings on record: [3H]CP-55,940 displacement, mouse brain membranes; read-out: CB1R mKi. The procedure:
BNS compounds’ binding to CB1R and CB2R was assessed in competition displacement assays using [^3H]CP-55,940 as the radioligand and crude membranes from mouse brain or human cells overexpressing the CB1R or CB2R. All data were in triplicates with Ki values determined from three independent experiments. See SI for a detailed procedure.
Supplementary Experimental Methods
Brain membrane preparation for CB1R b i nd i ng . The mouse cortex, excluding the cerebellum, was dissected from 6-week-old C57Bl/6Jhsd mice (Harlan, Israel). The tissue was homogenized in 4 mL Buffer 1 (320 mM sucrose, 2 mM EDTA, 5 m M MgCl 2) using a glass-Teflon homogenizer and Hei-T ORQUE 200 (Heidolph; Cat# 17-012- 002- 25 -1) homogenizer set to 132 rpm. After homogenization, the mixture was centrifuged at 1,600 × g for 10 min at four °C, and the resulting supernatant was kept on ice. The pellet (P1) was discarded, and the remaining supernatant was subje cted to additional rounds of resuspension in 4 mL Buffer 1 followed by centrifugations, repeating this process three times. The pellets obtained from these centrifugations were discarded, and the three supernatant fractions were combined and subjected to higher-speed centrifugation at 39,000 × g for 15 min at f ou r °C. […] This resuspended pellet ( P 2 ) was incubated at 37 °C for 10 min and then centrifuged at 23, 000 × g for 10 min at 4°C.
After centrifugation, the pellet (P2) was resuspended in 5 mL Buffer 2 and further incubated at 30 °C for 40 min. Following this incubation, the suspension was centrifuged at 11,000 × g for 15 min at 4 °C. The pellet (P2) was resuspended in 2 mL Buffer 3 containing 50 mM TRIS HCl pH 7.4, 1 mM EDTA, and 3 mM MgCl 2. T h e protein concentration of the final suspension was determined using the BCA assay.
Subsequently, the suspension was diluted to a final concentration of 2 mg/mL in Buffer 3, aliquoted on ice, and stored at - 80 °C for further use.
CB1R and CB2R binding. Binding to the CB1R/CB2R was asse ss ed using competition displacement as says with [ 3H] CP -55,940 as the radioligand. Purified membranes from the mouse brain were utilized for CB1R assessment (as described above). Purified […]
membranes from cells overexpressing human CB2R ( Char les River CAT # A618) w e r e employed for CB2R evaluation.
For mouse CB1R binding assays, the novel compounds were dissolved in dimethyl sulfoxide (DMSO) to reach a final concentration of 10 mM. Each compound was then diluted in Buffer 3 (as described above) supplemented with 0.14% BSA, resulting in concentrations ranging from 10^-4 M to 10^-10 M. Triplicates of 100 µL of each concentration were dispensed into siliconized glass tubes. At the same time, 100 µL of Buffer 3 with 0.14% BSA was dispensed into three tubes as blanks. CB1R b r a i n membranes (20 µg) were added to each tube and diluted with 800 µL Buffer 3 with 0.14% BSA. Subsequently, 5 nM of [ 3H] CP -55,940 (100 µL) was added to each tube.
The tubes were sealed with parafilm and incubated with shaking (120 rpm) in a water bath at 30 °C for 1 hour. Following incubation, 2 mL of cold Buffer 4 (50 mM TRIS HCl pH 7.4, 1 mg/mL BSA) was added to each tube.
To harvest the content of each tube, a Brandel M-24R Vacuum Harvester was employed, with a wet WHATMAN GF/B filter paper (Fired) (one membrane for 12 tubes) placed in the harvester after being washed twice with Buffer 4. The filter membrane in the harvester absorbed the full content of each tube. Then, the filter membrane was wash ed six times with Buffer 4. Each filter -glass membrane tube wa s excised and transferred to a 20 mL glass tube co ntaining a 5 mL ULTIMA GOLD scintillation cocktail. […]
A general note: In a radioligand displacement assay an active substance lowers the binding of a labelled ligand.

Series [5] has as its target P-gp (MDR1) (Homo sapiens, UniProt P08183). Kind of series: Bidirectional permeability in MDR1-MDCKII cells with and without GF120918. The settings on record: dog; for Papp A→B at 2.5 h: MDCK-MDR1; for recovery at 2.5 h: MDCK-MDR1, Mean recovery % A to B, without GF120918. The protocol: as §7, §8, §9, §10, §11, §12, §13
In series [6] the test system is HepG2 cells. Kind of series: Cell viability assay (CellTiter Glo). Format: cell-based. The conditions noted are these: Homo sapiens, 72 h, read-out: cell viability relative IC50. The procedure: Cell viability assay. To assess the cell viability, which indicates the toxicity of the novel compounds, a total of 3,000 HepG2 cells were seeded into a 384-well plate. The compounds were then dispensed onto the cell plate using a Tecan D300e digital dispenser. Following compound addition, 35 μL CellTiter Glo reagent was added to all wells of the assay plate, and the plate was mixed for 30 sec on an or bital shaker to lyse cells. Subsequently, the plate was incubated at room temperature for 10 minutes. The luminescence signal was measured using a 384-well plate reader (EnVision). The obtained data were analyzed using XL-fit software (ID Business Solutions Ltd., Software version: XL fit 5. 5. 0. 5). The percentage of inhibition was calculated using the […]
Inhibition (%) = (1-Sample / ZPE) ×100
Sample represents the test compound's luminesc e nce signal, and ZPE represents the luminescence signal f r om the zer o-percent enzyme control.

The mark [7] stands for this setting: Salmonella typhimurium, 2 μg/well.

These results are taken from article PMC12067444, “Synthesis and Pharmacological Characterization of Novel Peripheral Cannabinoid-1 Receptor Blockers Based on a Tricyclic Scaffold” (Journal of Medicinal Chemistry, 2025).

Chain of P-gp (MDR1-MDCKII cells) (P08183 whole entry): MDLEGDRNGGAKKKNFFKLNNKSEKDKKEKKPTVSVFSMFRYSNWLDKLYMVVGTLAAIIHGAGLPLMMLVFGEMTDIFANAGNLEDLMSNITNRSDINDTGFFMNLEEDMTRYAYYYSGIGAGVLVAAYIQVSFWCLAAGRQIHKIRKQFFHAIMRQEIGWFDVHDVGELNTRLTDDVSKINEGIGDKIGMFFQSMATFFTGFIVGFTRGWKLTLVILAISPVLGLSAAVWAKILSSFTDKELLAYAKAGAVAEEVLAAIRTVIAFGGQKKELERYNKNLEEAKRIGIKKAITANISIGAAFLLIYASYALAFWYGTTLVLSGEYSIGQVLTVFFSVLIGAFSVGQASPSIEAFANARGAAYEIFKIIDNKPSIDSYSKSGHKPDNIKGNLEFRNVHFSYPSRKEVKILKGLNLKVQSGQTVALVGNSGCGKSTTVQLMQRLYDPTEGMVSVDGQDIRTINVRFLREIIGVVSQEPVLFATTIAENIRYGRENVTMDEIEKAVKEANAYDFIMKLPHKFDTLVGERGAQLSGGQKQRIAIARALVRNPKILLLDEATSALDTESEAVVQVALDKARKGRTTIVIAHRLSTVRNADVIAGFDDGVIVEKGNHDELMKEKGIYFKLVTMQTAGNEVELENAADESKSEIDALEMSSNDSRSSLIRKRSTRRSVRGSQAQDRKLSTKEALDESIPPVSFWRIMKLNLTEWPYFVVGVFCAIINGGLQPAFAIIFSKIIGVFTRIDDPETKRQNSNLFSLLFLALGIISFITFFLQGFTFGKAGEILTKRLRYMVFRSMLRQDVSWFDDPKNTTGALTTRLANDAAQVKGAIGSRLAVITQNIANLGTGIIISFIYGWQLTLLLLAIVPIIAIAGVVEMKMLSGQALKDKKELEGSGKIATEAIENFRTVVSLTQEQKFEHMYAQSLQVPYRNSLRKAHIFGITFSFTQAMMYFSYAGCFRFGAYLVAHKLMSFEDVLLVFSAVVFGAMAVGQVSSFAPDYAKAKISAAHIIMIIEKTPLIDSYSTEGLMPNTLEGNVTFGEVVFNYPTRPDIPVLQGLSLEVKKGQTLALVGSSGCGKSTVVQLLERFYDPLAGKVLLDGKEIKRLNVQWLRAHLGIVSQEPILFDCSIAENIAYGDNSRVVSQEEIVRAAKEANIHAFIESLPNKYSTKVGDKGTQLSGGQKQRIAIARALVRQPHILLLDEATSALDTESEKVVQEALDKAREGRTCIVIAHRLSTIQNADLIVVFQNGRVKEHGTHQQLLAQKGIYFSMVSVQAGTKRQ
Chain of P-gp (MDR1) (P08183 whole entry): as above
T1 sequence (P47746 whole entry): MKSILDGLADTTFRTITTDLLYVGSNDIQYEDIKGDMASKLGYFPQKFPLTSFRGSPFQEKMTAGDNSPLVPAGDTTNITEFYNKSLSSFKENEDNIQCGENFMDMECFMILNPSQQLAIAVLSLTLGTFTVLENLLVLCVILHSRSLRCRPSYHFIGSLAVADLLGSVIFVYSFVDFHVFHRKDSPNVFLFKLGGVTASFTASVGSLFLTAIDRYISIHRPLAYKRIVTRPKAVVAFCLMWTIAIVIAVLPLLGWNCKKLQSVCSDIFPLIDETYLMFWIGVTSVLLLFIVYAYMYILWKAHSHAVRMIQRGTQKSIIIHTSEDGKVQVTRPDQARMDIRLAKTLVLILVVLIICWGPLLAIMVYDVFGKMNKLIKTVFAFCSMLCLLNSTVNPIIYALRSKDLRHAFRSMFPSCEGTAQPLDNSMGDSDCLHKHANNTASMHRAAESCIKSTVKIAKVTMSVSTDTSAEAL

For `Nc1ccc2cc3ccccc3cc2c1` [2-aminoanthracene (2-AA), 2-aminoanthracene, reference compound], in series [1] (2 μg/well), the F value is listed as 31.70 and the “Number of revertants MEAN” value stood at 348.67. Moreover, the solubility entry in series [2] is given as “P0”. In series [2] (setting [7]), the F value came to 8.00 and the “Number of revertants MEAN” value is reported as 317.33.
For the molecule `O=[N+]([O-])c1ccc2c(c1)Cc1ccccc1-2` [2-nitrofluorene (2-NF), 2-nitrofluorene, reference compound], in series [1] (4 μg/well), the F value came out at 14.00 and the “Number of revertants MEAN” value worked out at 102.67.
On to `C[C@H]1O[C@@H](O[C@H]2[C@@H](O)C[C@H](O[C@H]3[C@@H](O)C[C@H](O[C@H]4CC[C@@]5(C)[C@H](CC[C@@H]6[C@@H]5C[C@@H](O)[C@]5(C)[C@@H](C7=CC(=O)OC7)CC[C@]65O)C4)O[C@@H]3C)O[C@@H]2C)C[C@H](O)[C@@H]1O` [Digoxin, reference compound], for which the P-gp substrate entry in series [3] (MDR1-MDCKII cells) was “Ye s”. In series [3], the “Rank Papp” value is “Low”. For the same molecule, the “Mean Papp B to A” value in series [3] (without GF120918) is listed as 10.88 10 -6 cm/s.
For the molecule `CNC(=O)NC1CCCOc2c1nn(-c1ccccc1Cl)c2-c1ccc(Cl)cc1` (stereo not drawn) [BNS813, 1-[2-(2-Chlorophenyl)-3-(4-chlorophenyl)-5,6,7,8-tetrahydrooxepino[3,2-c]pyrazol-8-yl]-3-methyl-urea], the Ki in series [4] came to 1130 nM.
In general, Papp A→B refers to how fast a substance crosses the layer from the apical side. Higher therefore signals ready permeation. As to `COCCc1ccc(OCC(O)CNC(C)C)cc1` (stereo not drawn) [Metoprolol, reference compound], the “Rank Papp” value in series [3] is on record as “Hi gh”. In addition, in series [5], the Papp A→B at 2.5 h amounted to 28.7 ×10⁻⁶ cm/s and the recovery at 2.5 h was determined as 107%.
`CC(C)(C)NCC(O)COc1cccc2c1CC(O)C(O)C2` (stereo not drawn) [Nadolol, reference compound]: in series [3], the “Rank Papp” value was “Low”. In series [5], this molecule showed a Papp A→B at 2.5 h of 0.42 ×10⁻⁶ cm/s and a recovery at 2.5 h of 102%.
In general, IC50 refers to the concentration that inhibits the measured activity by half. As to `CN[C@@H]1C[C@H]2O[C@@](C)([C@@H]1OC)n1c3ccccc3c3c4c(c5c6ccccc6n2c5c31)C(=O)NC4` [Staurosporine, reference compound], the half-inhibitory concentration (IC50) in series [6] is 60 nM.
